Tests used:
Assay type in all cases: biochemical
LPL from rat adipocytes = biological target: T1, LPL from rat adipocytes (Rattus norvegicus, UniProt Q06000); test: Cleavage of NAG by LPL; details: for Increase in the absorption at 481 nm: 60 min, NAG 0.05 mg/ml
T1 construct: 75 μg of partially purified LPL from rat adipocytes; from tissue; host or cells: rat adipocytes
T1 sequence (Q06000 28-474): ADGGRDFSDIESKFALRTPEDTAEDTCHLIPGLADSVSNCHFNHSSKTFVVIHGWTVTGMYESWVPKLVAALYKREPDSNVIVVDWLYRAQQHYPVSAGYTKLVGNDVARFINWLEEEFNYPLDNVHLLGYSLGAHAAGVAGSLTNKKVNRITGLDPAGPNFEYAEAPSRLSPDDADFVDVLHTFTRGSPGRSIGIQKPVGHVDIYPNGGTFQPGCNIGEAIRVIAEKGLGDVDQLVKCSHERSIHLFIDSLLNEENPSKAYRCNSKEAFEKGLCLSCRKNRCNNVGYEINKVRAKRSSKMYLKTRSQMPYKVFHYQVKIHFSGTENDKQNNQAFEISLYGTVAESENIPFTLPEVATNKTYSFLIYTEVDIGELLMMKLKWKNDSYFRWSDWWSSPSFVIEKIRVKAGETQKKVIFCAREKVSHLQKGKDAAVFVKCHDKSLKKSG

PLA2 from snake venom = test: Cleavage of NAG by PLA2; details: 60 min, NAG 0.05 mg/ml
lipases, preferably HSL = biological target: T2, lipases, preferably HSL (Rattus norvegicus, UniProt P15304); test: Synthesized NBD-acylglycerides as substrates of lipases
T2 sequence (P15304 1-768 isoform P15304-2): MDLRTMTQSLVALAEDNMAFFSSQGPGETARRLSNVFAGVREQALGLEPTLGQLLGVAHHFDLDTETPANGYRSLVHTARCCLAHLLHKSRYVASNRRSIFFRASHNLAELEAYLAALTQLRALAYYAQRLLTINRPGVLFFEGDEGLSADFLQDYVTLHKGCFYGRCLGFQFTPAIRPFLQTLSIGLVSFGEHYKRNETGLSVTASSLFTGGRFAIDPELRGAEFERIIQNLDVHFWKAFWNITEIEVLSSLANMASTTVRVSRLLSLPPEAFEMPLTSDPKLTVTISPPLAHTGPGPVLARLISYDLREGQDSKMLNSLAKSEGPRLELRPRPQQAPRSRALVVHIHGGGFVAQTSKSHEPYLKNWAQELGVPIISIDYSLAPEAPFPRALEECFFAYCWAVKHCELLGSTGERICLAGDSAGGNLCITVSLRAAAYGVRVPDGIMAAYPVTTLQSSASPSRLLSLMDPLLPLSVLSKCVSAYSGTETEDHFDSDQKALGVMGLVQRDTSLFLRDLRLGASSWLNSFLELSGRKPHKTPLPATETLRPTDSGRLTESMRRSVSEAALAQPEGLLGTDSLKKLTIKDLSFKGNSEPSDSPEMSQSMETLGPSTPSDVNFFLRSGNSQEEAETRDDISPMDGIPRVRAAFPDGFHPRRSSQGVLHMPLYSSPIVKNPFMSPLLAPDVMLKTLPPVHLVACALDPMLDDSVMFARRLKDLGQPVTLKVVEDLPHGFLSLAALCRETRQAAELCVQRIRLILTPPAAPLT

pancreatic lipase = biological target: T3, pancreatic lipase (Homo sapiens, UniProt P16233); test: Cleavage of NAG by pancreatic lipase; details: for Increase in the absorption at 481 nm: Pancreatic lipase, 60 min, NAG 0.05 mg/ml
T3 sequence (P16233 17-465): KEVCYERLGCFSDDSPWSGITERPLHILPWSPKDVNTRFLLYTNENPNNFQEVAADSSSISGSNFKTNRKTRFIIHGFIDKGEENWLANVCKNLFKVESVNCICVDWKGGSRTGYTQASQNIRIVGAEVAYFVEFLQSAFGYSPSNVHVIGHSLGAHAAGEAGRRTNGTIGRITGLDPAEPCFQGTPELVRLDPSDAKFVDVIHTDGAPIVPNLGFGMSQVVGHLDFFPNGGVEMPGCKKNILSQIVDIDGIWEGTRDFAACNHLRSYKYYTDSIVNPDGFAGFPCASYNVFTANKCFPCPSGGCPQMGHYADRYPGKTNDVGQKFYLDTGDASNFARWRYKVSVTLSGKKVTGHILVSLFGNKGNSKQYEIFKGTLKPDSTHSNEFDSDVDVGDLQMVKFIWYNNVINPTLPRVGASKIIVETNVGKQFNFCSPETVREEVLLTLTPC

O=C(CCCCCCCCCCCNc1ccc([N+](=O)[O-])c2nonc12)OCC(O)CO (stereo not drawn) [Compound (3)]
Activity relative to HSL (LPL from rat adipocytes; conditions optimized for HSL): ~70% | Increase in the absorption at 481 nm (LPL from rat adipocytes; enzyme 10 arb. units): 105 ± 14 arb. units | Increase in the absorption at 481 nm (LPL from rat adipocytes; enzyme 20 arb. units): 187 ± 17 arb. units | Increase in the absorption at 481 nm (LPL from rat adipocytes; enzyme 50 arb. units): 489 ± 31 arb. units | Increase in the absorption at 481 nm (LPL from rat adipocytes; enzyme 75 arb. units): 773 ± 56 arb. units | Increase in the absorption at 481 nm (LPL from rat adipocytes; enzyme 100 arb. units): 948 ± 72 arb. units | Increase in the absorption at 481 nm (LPL from rat adipocytes; enzyme 150 arb. units): 1487 ± 132 arb. units | Increase in the absorption at 481 nm (LPL from rat adipocytes; enzyme 200 arb. units): 1952 ± 173 arb. units | Increase in the absorption at 481 nm (LPL from rat adipocytes; enzyme 250 arb. units): 2638 ± 213 arb. units | Increase in the absorption at 481 nm (LPL from rat adipocytes; enzyme 300 arb. units): 2945 ± 250 arb. units | Increase in the absorption at 481 nm (LPL from rat adipocytes; enzyme 400 arb. units): 3512 ± 288 arb. units | Increase in the absorption at 481 nm (PLA2 from snake venom; PLA2, enzyme 10 arb. units): 1 ± 1 arb. units | Increase in the absorption at 481 nm (PLA2 from snake venom; PLA2, enzyme 20 arb. units): 3 ± 2 arb. units | Increase in the absorption at 481 nm (PLA2 from snake venom; PLA2, enzyme 50 arb. units): 5 ± 1 arb. units | Increase in the absorption at 481 nm (PLA2 from snake venom; PLA2, enzyme 75 arb. units): 8 ± 2 arb. units | Increase in the absorption at 481 nm (PLA2 from snake venom; PLA2, enzyme 100 arb. units): 10 ± 2 arb. units | Increase in the absorption at 481 nm (PLA2 from snake venom; PLA2, enzyme 150 arb. units): 26 ± 6 arb. units | Increase in the absorption at 481 nm (PLA2 from snake venom; PLA2, enzyme 200 arb. units): 35 ± 9 arb. units | Increase in the absorption at 481 nm (PLA2 from snake venom; PLA2, enzyme 250 arb. units): 46 ± 12 arb. units | Increase in the absorption at 481 nm (PLA2 from snake venom; PLA2, enzyme 300 arb. units): 54 ± 9 arb. units | Increase in the absorption at 481 nm (PLA2 from snake venom; PLA2, enzyme 400 arb. units): 75 ± 11 arb. units | Activity as substrate of lipases (lipases, preferably HSL): “best” substrate | Increase in the absorption at 481 nm (pancreatic lipase; enzyme 10 arb. units): 9 ± 2 arb. units | Increase in the absorption at 481 nm (pancreatic lipase; enzyme 20 arb. units): 14 ± 4 arb. units | Increase in the absorption at 481 nm (pancreatic lipase; enzyme 50 arb. units): 39 ± 7 arb. units | Increase in the absorption at 481 nm (pancreatic lipase; enzyme 75 arb. units): 64 ± 10 arb. units | Increase in the absorption at 481 nm (pancreatic lipase; enzyme 100 arb. units): 92 ± 14 arb. units | Increase in the absorption at 481 nm (pancreatic lipase; enzyme 150 arb. units): 140 ± 18 arb. units | Increase in the absorption at 481 nm (pancreatic lipase; enzyme 200 arb. units): 188 ± 21 arb. units | Increase in the absorption at 481 nm (pancreatic lipase; enzyme 250 arb. units): 234 ± 30 arb. units | Increase in the absorption at 481 nm (pancreatic lipase; enzyme 300 arb. units): 265 ± 34 arb. units | Increase in the absorption at 481 nm (pancreatic lipase; enzyme 400 arb. units): 286 ± 32 arb. units | Activity relative to HSL (pancreatic lipase; pancreatic lipase, conditions optimized for HSL): 1%

Source: patent publication US6783949B1, “Processes for determining whether a test substance contains lipases or lipase inhibitors” (Aventis Pharma Deutschland GmbH, priority 1999, dated 2004)
